Test results published in US4264729A, “Method and reagent for detecting cancerigenic and anticancerous substances” (priority 1978, dated 1981).

Tests used:
[1] = system: DNA T (matricial DNA separated from sound tissues); experiment: synthesis in vitro of DNA on a matrix of check DNA (DNA T) with DNA-polymerase, radioactive acidoprecipitable DNA measured; format: biochemical; details: for replication of DNA-T (amount of radioactive DNA 3H synthetised): as a function of the amount of substance in the reactional medium (0 to 100 μg in 0.15 ml), 10 minutes at 36° C., FIG. 1, 3, 4; for replication of DNA-T separated from sound breast tissues: breast tissue DNA, FIG. 6; for replication of DNA taken on check tissues such as lung or liver tissues: lung or liver tissue DNA
Text: (§1) According to the invention, there is provided a method in which there is observed, in measuring the radioactive acidoprecipitable DNA, the synthesis of DNA on a matrix of DNA separated from sound tissues on the one hand, and on a matrix of DNA separated from cancerous tissues on the other hand, in a medium comprising four desoxyribonucleoside-5'-triphosphates, one of which is radioactive, and one enzyme DNA-polymerase, with the substance to be tested and without it.
(§2) For carrying into effect the test, which in itself is very short, it is necessary to hold several preparations, previously and carefully proven, of matricial DNA separated from sound tissues (check tissue, hereinafter referenced to as DNA T) and of matricial DNA separated from cancerous tissues (hereinafter referenced to as DNA C).
The preparations of DNA T are obtained in the same manner by using as raw material sound tissues separated from various human or animal organs, or from sound cells cultivated "in vitro" in a suitable medium.
(§3) For each test, it is necessary to hold at least four couples of matricial DNA of different origins, each couple being formed by an DNA T preparation and an DNA C preparation originating from the same organ, of the same animal kind. For example, there is used at least four couples selected among the following: DNA T and DNA C separated from lung tissue; DNA T and DNA C separated from breast tissue; DNA T and DNA C separated from ovary tissue; DNA T of primary cells of monkey kidney (RS), or of "Vero" cells, or of "SIRC" cells in culture and DNA C of KB cells or Hela cells, or L cells in culture.
(§4) For separating DNA, either from sound tissues or from cancerous tissues, there is used a modified conventional method of separation and purification (J. Narmur, J. Mol. Biol. 3 208, 1961). When a cancerous tissue or a tumour is used, the neighbouring sound or questionable tissues must first be discarded, and reciprocally, the sound tissues must be free from any questionable tissues.
(§5) Immediately after exeresis, the tissue is either frozen at -20° C., or finely crushed in a kneading machine, in the presence of a buffer 2 SSC (containing 17.4 g of NaCl and 10.7 g of trisodic citrate for 1 liter of sterile distilled water) in a sterile aqueous solution (1 to 3 ml of buffer according to the volume of tissue) and of a final concentration of 0.2% in laurylsulphate (by adding an aqueous mother solution of laurylsulphate at 20%).
(§6) In order to get rid of the proteins and to keep the DNA, several extractions are made in the presence of buffer 2 SSC and phenol (solution containing 10% of water), followed by extractions with chloroform and by centrifugations according to the conventional technique of separation and purification of DNA. The DNA present in the aqueous phases is precipitated in 96° alcohol, picked up with a glass rod, solved in a little volume of 1 SSC, then treated by the pancreatic ribonucleases and T1, what requires a whole supplementary cycle of repurification with phenol, then with chloroform. The DNA is dialysed against a solution of 2 SSC (24 hours at 4° C.), dosed by absorption in ultraviolet and stored frozen at -20° C., several months if necessary. Before use, the DNA is once more dialysed during several hours against sterile distilled water.
(§7) The DNA is characterized by its absorbance in ultraviolet at 260 nm and 280 nm. The typical ratio 260/280 varies from 2.0 to 2.1 according to the preparation. The content of the ARN in proteins varies from 0.3 to 0.6% and the content in polyribonucleotids having resisted the action of nucleases and contaminating the DNA is between 1 and 3%. The RNA (ribonucleic acid) can be eliminated by degradation by KOH 0.3 M (final concentration) during 16 hours at 36° C., and the DNA is then dialysed and stored as hereinabove mentioned. […]

[2] = system: DNA C (matricial DNA separated from cancerous tissues); experiment: synthesis in vitro of DNA on a matrix of cancerous DNA (DNA C) with DNA-polymerase, radioactive acidoprecipitable DNA measured; format: biochemical; details: for replication of DNA-C (amount of radioactive DNA 3H synthetised): as a function of the amount of substance in the reactional medium (0 to 100 μg in 0.15 ml), 10 minutes at 36° C., FIG. 1, 3, 4; for replication of DNA-C separated from cancerous breast tissues: breast tissue DNA, FIG. 6; for replication of DNA taken on cancerous tissues such as lung or liver tissues: lung or liver tissue DNA
Text: as §1, §2
The DNA C preparations are obtained by using as raw material various cancerous tissues or tumours taken on a human or animal organ, such as breast, lung, ovary, neuro-carcinome, ascites, etc. It is also possible to use cultures of cancerous cells such as KB or Hela cells, etc.
as §3, §4, §5, §6, §7

[3] = between 0,005 and 0,01 ml of acridine orange (0.1 mg/ml) in the medium, FIG. 2

| SMILES | replication of DNA-T (amount of radioactive DNA 3H synthetised) [1] | replication of DNA-C (amount of radioactive DNA 3H synthetised) [2] | replication of DNA-T separated from sound breast tissues [1] | replication of DNA taken on check tissues such as lung or liver tissues [1] | replication of DNA-C separated from cancerous breast tissues [2] | replication of DNA taken on cancerous tissues such as lung or liver tissues [2] | other results |
| --- | --- | --- | --- | --- | --- | --- | --- |
| c1cc[n+]2c(c1)-c1cccc[n+]1CC2 [Diquat, ethylene-1,1-bipyridilium-2,2-dibromid] | inhibition non selective | inhibition non selective |  |  |  |  |  |
| O=C(O)c1cccnc1 [Nicotinic acid] | neutral | neutral |  |  |  |  |  |
| CN(C)c1ccc2cc3ccc(N(C)C)cc3nc2c1 [acridine orange] |  |  |  |  |  |  | synthesis of DNA-T [1, 3]: slows down the synthesis; replication of check DNA ([1]; high concentrations): toxic and inhibit; replication of DNA-C ([2]; 0.005 ml acridine orange (0.1 mg/ml) in the medium, compared with DNA-T, FIG. 2): stimulation of DNA-C replication is clearly stronger than that of DNA-T; synthesis of DNA-C [2, 3]: slows down the synthesis; replication of cancerous DNA ([2]; high concentrations): toxic and inhibit |
| C[C@]12CC[C@@H]3c4ccc(O)cc4CC[C@H]3[C@@H]1CC[C@@H]2O [estradiol] |  |  | stimulate weakly | no effect | very strongly | no effect |  |
| C[C@]12CC[C@@H]3c4ccc(O)cc4CC[C@H]3[C@@H]1CCC2=O [estrone] |  |  | stimulate weakly | no effect | very strongly | no effect |  |
| C1CNCCN1 [piperazine] | neutral | neutral |  |  |  |  |  |
